This passage reports IC50 results from patent US20260356851A1, “TRICYCLIC COMPOUNDS AND USES THEREOF” (HUTCHMED LIMITED, priority 2023, published 2026).

As a reminder, the IC50 is the point on the concentration scale where inhibition reaches its midpoint.

Format in all cases: cell-based
Test [1] has as its target T1, pERK1/2 (Thr202/Tyr204), NCI-1H358 (KRAS G12C) (Homo sapiens, UniProt P01116, G12C).
T1 construct: pERK1/2 HTRF read-out
Description: Assay of intracellular pERK1/2 (Thr202/Tyr204) phosphorylation in NCI-H358 cells (KRAS G12C). The note with it: pERK1/2, 2 days, read-out: NCI-H358 (KRAS G12C) IC50. The essentials:
(§1)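 Cells (10000-12000/well) exposed to 3-fold compound dilutions for 2 days at 37 °C, then lysed; pERK1/2 (Thr202/Tyr204) measured by HTRF with d2 and cryptate antibodies, 665/615 nm ratio.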

Test [2] deals with T2, pERK1/2 (Thr202/Tyr204), PANC-1 (KRAS G121D) (Homo sapiens, UniProt P01116, G12D).
T2 construct: pERK1/2 HTRF read-out
T2 sequence (P01116 1-188 isoform P01116-2 G12D): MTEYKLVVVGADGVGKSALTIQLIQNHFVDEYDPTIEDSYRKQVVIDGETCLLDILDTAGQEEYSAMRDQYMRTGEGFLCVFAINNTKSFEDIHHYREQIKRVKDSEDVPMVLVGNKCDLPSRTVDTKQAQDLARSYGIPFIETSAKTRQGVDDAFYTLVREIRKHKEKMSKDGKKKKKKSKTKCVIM
Put plainly: Assay of intracellular pERK1/2 (Thr202/Tyr204) phosphorylation in PANC-1 cells (KRAS G12D). Conditions: pERK1/2, 2 days, read-out: PANC-1 (KRAS G12D) IC50. A digest of the protocol: as §1

Test [3] addresses T3, pERK1/2 (Thr202/Tyr204), NCI-1H441 (KRAS G12V) (Homo sapiens, UniProt P01116, G12V).
T3 construct: pERK1/2 HTRF read-out
Description: Assay of intracellular pERK1/2 (Thr202/Tyr204) phosphorylation in NCI-H441 cells (KRAS G12V). The note with it: pERK1/2, 2 days, read-out: NCI-H441 (KRAS G12V) IC50. A digest of the protocol:
as §1

T3 sequence (P01116 1-188 isoform P01116-2 G12V): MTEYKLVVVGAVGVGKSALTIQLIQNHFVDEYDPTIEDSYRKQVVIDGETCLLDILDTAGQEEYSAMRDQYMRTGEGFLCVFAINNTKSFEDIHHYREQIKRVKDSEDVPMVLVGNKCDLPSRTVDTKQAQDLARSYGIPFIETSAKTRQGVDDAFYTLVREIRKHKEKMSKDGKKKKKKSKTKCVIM
T1 sequence (P01116 1-188 isoform P01116-2 G12C): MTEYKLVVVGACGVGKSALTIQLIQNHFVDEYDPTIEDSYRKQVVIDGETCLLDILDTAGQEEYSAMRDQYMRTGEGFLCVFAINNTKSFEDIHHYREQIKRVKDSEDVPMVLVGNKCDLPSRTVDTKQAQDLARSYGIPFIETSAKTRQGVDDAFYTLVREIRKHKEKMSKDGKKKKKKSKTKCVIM

On to `Cc1cc(N)cc(-c2nc3c4c(nc(OC[C@@H]5C[C@@H](F)CN5C)nc4c2F)N(C(C)c2cccnc2N)CCO3)c1C(F)(F)F` (stereo partly drawn) [Compound 73], for which the half-maximal inhibitory concentration (IC50) was 0.9 nM in test [1], 31 nM in test [2] and 2 nM in test [3].
On to `CC(c1cccnc1N)N1CCOc2nc(-c3cc(N)cc(F)c3C(F)(F)F)c(F)c3nc(OC[C@@]45CCCN4C[C@H](F)C5)nc1c23` (stereo partly drawn) [Compound 82], for which the half-maximal inhibitory concentration (IC50) in test [1] was found to be 0.8 nM; in test [2] it was 15 nM; in test [3], 0.8 nM.
Turning to `Cc1nc(N)cc(-c2nc3c4c(nc(OC[C@@]56CCCN5C[C@H](F)C6)nc4c2F)N(C(C)c2cccnc2N)CCO3)c1C(F)(F)F` (stereo partly drawn) [Compound 83], the half-maximal inhibitory concentration (IC50) in test [1] was 0.6 nM; in test [2], 29 nM; in test [3], 3 nM.
The like results for `Cc1cc(N)cc(-c2nc3c4c(nc(OCC56CCCN5CCC6)nc4c2F)N(C(C)c2cccnc2N)CCO3)c1C(F)(F)F` (stereo not drawn) [Compound 87] were, in that order, 3 nM, 36 nM and 6 nM.
Take `C#Cc1c(Cl)cc(N)cc1-c1nc2c3c(nc(OC[C@@H]4CCCN4C)nc3c1F)N(C(C)c1cccnc1N)CCO2` (stereo partly drawn) [Compound 94]: the IC50 was 46 nM in test [1], more than 100 nM in test [2] and 100 nM in test [3].
The matching figures for `Cc1nc(N)cc(-c2nc3c4c(nc(OC[C@@H]5CCCN5C)nc4c2F)N(C(C)c2cccnc2N)CCO3)c1C(F)(F)F` (stereo partly drawn) [Compound 97]: 16 nM, more than 100 nM and 36 nM.
The matching figures for `[2H]C([2H])(Oc1nc2c3c(nc(-c4cc(N)c(F)c(C)c4C(F)(F)F)c(F)c3n1)OCCN2C(C)c1cccnc1N)[C@@H]1CCC([2H])([2H])N1C([2H])([2H])[2H]` (stereo partly drawn) [Compound 104]: 2 nM, 24 nM and 3 nM.
For the molecule `[2H]C1([2H])CC[C@@]2(C([2H])([2H])Oc3nc4c5c(nc(-c6cc(N)cc(C)c6C(F)(F)F)c(F)c5n3)OCCN4C(C)c3cccnc3N)C[C@@H](F)CN12` (stereo partly drawn) [Compound 105], the IC50 in test [1] was determined as 0.4 nM; in test [2] it was 2 nM; in test [3] it was 0.6 nM.
The matching figures for `Cc1cc(N)cc(-c2nc3c4c(nc(OC[C@@H]5CCCN5CCO)nc4c2F)N(C(C)c2cccnc2N)CCO3)c1C(F)(F)F` (stereo partly drawn) [Compound 108]: 12 nM, more than 100 nM and 26 nM.
The like results for `[2H]C([2H])([2H])N1CCC[C@H]1COc1nc2c3c(nc(-c4cc(N)cc(Cl)c4C(F)(F)F)c(F)c3n1)OCCN2C(C)c1cccnc1N` (stereo partly drawn) [Compound 111] were, in that order, 1 nM, 21 nM and 1 nM.
The like results for `[2H]C([2H])(Oc1nc2c3c(nc(-c4cc(N)cc(Cl)c4C(F)(F)F)c(F)c3n1)OCCN2C(C)c1cccnc1N)[C@@H]1CCC([2H])([2H])N1C([2H])([2H])[2H]` (stereo partly drawn) [Compound 112] were, in that order, 1 nM, 34 nM and 2 nM.
With `[2H]C1([2H])CC[C@@]2(C([2H])([2H])Oc3nc4c5c(nc(-c6cc(N)cc(Cl)c6C(F)(F)F)c(F)c5n3)OCCN4C(C)c3cccnc3N)C[C@@H](F)CN12` (stereo partly drawn) [Compound 113], the figures for the concentration for half-maximal inhibition (IC50) in test [1], in test [2] and in test [3] were 0.7 nM, 2 nM and 0.8 nM, respectively.
The like results for `CCN1CCC[C@H]1COc1nc2c3c(nc(-c4cc(N)cc(C)c4C(F)(F)F)c(F)c3n1)OCCN2C(C)c1cccnc1N` (stereo partly drawn) [Compound 114] were, in that order, 0.6 nM, 19 nM and 0.9 nM.
Take `[2H]C1([2H])CC[C@@]2(C([2H])([2H])Oc3nc4c5c(nc(-c6cc(N)c(F)c(C)c6C(F)(F)F)c(F)c5n3)OCCN4C(C)c3cccnc3N)C[C@@H](F)CN12` (stereo partly drawn) [Compound 119]: the values for the IC50 in test [1], in test [2] and in test [3] were 0.3 nM, 2 nM and 0.4 nM, respectively.
